According to PMC8880361, “Design, Molecular Docking, Synthesis, Anticancer and Anti-Hyperglycemic Assessments of Thiazolidine-2,4-diones Bearing Sulfonylthiourea Moieties as Potent VEGFR-2 Inhibitors and PPARγ Agonists” (Pharmaceuticals, 2022):

Tests used:
[1] = test system: HCT116; experiment: In vitro cytotoxicity, MTT colorimetric assay; type: cell-based, human; conditions: for IC50: Homo sapiens, HCT-116, MTT, mean ± S.D. of triplet separate experiments; for fold more toxic in HCT-116 than in normal VERO cells: ratio VERO vs HCT-116
[2] = biological target: VEGFR-2 (Homo sapiens, UniProt P35968); experiment: In vitro VEGFR-2 kinase assay (anti-phosphotyrosine antibody, Alpha Screen system); type: biochemical; conditions: mean ± S.D. of triplet separate experiments
[3] = test system: MCF-7; experiment: In vitro cytotoxicity, MTT colorimetric assay; type: cell-based, human; conditions: for IC50: Homo sapiens, MCF7, MTT, mean ± S.D. of triplet separate experiments; for fold higher toxicity in MCF-7 than in normal VERO cells: ratio VERO vs MCF-7
[4] = test system: HepG2; experiment: In vitro cytotoxicity, MTT colorimetric assay; type: cell-based, human; conditions: for IC50: Homo sapiens, HepG2, MTT, mean ± S.D. of triplet separate experiments; for fold more toxic against HepG2 than normal VERO cells: ratio VERO vs HepG2
[5] = biological target: T1, PPARγ (Homo sapiens, UniProt P37231); experiment: In vitro PPARγ ligand binding assay (Fluorescence Polarization); conditions: concentration required to displace 50% of the titrated ligand; n = 3; read-out: IC50 PPARγ Binding Affinity
T1 sequence (P37231 1-505): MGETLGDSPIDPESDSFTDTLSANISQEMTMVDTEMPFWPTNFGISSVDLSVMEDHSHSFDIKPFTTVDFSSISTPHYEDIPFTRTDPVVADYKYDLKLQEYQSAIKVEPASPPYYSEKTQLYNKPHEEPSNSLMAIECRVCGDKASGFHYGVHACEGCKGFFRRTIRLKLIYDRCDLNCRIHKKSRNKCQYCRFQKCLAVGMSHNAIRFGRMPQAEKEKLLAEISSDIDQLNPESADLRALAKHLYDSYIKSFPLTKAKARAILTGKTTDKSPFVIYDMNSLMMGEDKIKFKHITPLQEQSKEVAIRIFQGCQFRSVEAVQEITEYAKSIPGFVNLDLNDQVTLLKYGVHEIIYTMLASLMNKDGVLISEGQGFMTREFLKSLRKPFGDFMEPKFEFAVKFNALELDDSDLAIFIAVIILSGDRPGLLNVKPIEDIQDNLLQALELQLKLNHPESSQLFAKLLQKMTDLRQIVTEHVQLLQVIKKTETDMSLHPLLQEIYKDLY

[6] = test system: isolated pancreatic islets of rats; experiment: In vitro insulin secretion assay (sandwich enzyme immunoassay); type: cell-based; conditions: Pancreatic islet; isolated rat pancreatic islets; concentration for 50% of the maximum action; n = 3; read-out: EC50 Insulin Secreting Activity
Protocol: Compounds 5a–c, 6a–c and 7a–c were also assessed to establish their insulin-secretion activities in vitro against isolated pancreatic islets of rats through the quantitative sandwich technique of enzyme immunoassay. Glimiperide was applied as the standard. The findings are described as the EC50 values (Table 4).

[7] = test system: VERO normal cell lines; experiment: Cytotoxicity against normal cells; type: cell-based; conditions: Chlorocebus sabaeus, mean ± S.D. of triplet separate experiments
Protocol: The cytotoxic effects of the prepared derivatives against the malignant cell lines ranged from 5.77 to 17.65 μM. Derivatives 6a–c and 7a–c were, respectively, 3.41-, 3.83-, 6.93-, 4.99-, 5.45- and 7.74-fold times more toxic against HepG2 than normal VERO cells. Similarly, derivatives 6a-c and 7a-c were, respectively, 2.74-, 2.97-, 6.04-, 3.58-, 3.90- and 11.83-fold more toxic in HCT-116 than in normal VERO cells.

Chain of VEGFR-2 (P35968 20-1356): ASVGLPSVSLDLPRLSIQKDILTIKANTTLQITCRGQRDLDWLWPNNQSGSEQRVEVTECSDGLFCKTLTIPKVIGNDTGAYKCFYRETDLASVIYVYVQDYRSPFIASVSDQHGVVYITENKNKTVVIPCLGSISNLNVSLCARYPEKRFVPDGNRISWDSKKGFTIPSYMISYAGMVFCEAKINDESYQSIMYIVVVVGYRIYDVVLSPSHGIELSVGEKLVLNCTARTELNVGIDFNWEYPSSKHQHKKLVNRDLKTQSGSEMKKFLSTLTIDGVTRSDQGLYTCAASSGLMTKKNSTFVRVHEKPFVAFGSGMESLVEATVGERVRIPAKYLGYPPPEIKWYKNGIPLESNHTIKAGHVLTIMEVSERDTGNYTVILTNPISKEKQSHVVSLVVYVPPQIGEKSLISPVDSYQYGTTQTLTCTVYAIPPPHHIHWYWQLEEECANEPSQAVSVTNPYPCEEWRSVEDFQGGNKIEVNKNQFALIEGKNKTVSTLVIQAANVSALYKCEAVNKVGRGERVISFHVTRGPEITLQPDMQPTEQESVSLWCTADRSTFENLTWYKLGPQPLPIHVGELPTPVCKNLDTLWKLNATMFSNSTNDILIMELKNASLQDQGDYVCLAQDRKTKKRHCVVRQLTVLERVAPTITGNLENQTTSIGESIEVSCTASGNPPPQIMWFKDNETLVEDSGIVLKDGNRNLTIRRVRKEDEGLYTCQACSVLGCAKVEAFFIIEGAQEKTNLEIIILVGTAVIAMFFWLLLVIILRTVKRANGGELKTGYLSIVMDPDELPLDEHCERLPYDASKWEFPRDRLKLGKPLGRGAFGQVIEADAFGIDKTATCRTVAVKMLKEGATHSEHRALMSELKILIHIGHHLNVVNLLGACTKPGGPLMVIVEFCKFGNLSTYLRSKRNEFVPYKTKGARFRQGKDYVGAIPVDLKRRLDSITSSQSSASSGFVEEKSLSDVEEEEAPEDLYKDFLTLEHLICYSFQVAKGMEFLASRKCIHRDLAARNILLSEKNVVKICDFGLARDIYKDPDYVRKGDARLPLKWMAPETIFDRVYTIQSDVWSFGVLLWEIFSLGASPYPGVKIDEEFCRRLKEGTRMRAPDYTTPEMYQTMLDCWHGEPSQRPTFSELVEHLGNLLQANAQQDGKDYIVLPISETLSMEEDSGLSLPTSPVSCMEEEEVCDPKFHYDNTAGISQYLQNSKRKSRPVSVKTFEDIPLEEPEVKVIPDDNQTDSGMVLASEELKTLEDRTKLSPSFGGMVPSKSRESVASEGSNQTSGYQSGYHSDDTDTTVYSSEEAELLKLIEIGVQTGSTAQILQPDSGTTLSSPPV

Compound	IC50 [1] [µM]	IC50 [2] [µM]	IC50 [3] [µM]	IC50 [4] [µM]	melting point [°C]	IC50 [5] [µM]	EC50 [6] [µM]	fold more toxic in HCT-116 than in normal VERO cells [1] [fold]	IC50 [7] [µM]	fold higher toxicity in MCF-7 than in normal VERO cells [3] [fold]	fold more toxic against HepG2 than normal VERO cells [4] [fold]
NS(=O)(=O)c1ccc(NC(=O)CN2C(=O)CSC2=O)cc1 [Compound 3, 2-(2,4-Dioxothiazolidin-3-yl)-N-(4-Sulfamoylphenyl)-Acetamide]	61.5 ± 5.1	0.93 ± 0.06	60.2 ± 5.1	58.6 ± 5.1	–	–	–	–	–	–	–
NS(=O)(=O)c1ccc(NC(=O)CN2C(=O)SC(=Cc3ccccc3)C2=O)cc1 [Compound 4a, 2-(5-Benzylidene-2,4-dioxothiazolidin-3-yl)-N-(4-sulfamoylphenyl)acetamide]	55.1 ± 5.1	0.92 ± 0.06	55 ± 5.1	52.9 ± 5.1	226 to 228	–	–	–	–	–	–
Cc1ccc(C=C2SC(=O)N(CC(=O)Nc3ccc(S(N)(=O)=O)cc3)C2=O)cc1 [Compound 4b, 2-(5-(4-Methylbenzylidene)-2,4-dioxothiazolidin-3-yl)-N-(4-sulfamoylphenyl)acetamide]	57.9 ± 5.1	0.89 ± 0.06	62.4 ± 5.1	48.6 ± 5.1	240 to 242	–	–	–	–	–	–
CCNC(=S)NS(=O)(=O)c1ccc(NC(=O)CN2C(=O)CSC2=O)cc1 [Compound 5a, 2-(2,4-Dioxothiazolidin-3-yl)-N-(4-(N-(ethylcarbamothioyl)sulfamoyl)phenyl)acetamide]	40.1 ± 2.2	0.46 ± 0.05	28.8 ± 2.2	24.5 ± 2.2	–	0.393	1.2	–	–	–	–
O=C(CN1C(=O)CSC1=O)Nc1ccc(S(=O)(=O)NC(=S)Nc2ccccc2)cc1 [Compound 5b, 2-(2,4-Dioxothiazolidin-3-yl)-N-(4-(N-(phenylcarbamothioyl)sulfamoyl)phenyl)acetamide]	25.7 ± 2	0.44 ± 0.05	23.2 ± 2	22 ± 2	262 to 264	0.377	1.13	–	–	–	–
O=C(CN1C(=O)CSC1=O)Nc1ccc(S(=O)(=O)NC(=S)NC2CCCCC2)cc1 [Compound 5c, N-(4-(N-(Cyclohexylcarbamothioyl)sulfamoyl)phenyl)-2-(2,4-dioxothiazolidin-3-yl)acetamide]	23.6 ± 2.6	0.44 ± 0.05	24.6 ± 2.6	20.8 ± 2.6	267 to 269	0.36	1	–	–	–	–
CCNC(=S)NS(=O)(=O)c1ccc(NC(=O)CN2C(=O)SC(=Cc3ccccc3)C2=O)cc1 [Compound 6a, 2-(5-Benzylidene-2,4-dioxothiazolidin-3-yl)-N-(4-(N-(ethylcarbamothioyl)sulfamoyl)phenyl)acetamide]	17.7 ± 2.3	0.17 ± 0.02	16.5 ± 2.3	14.2 ± 2.3	282 to 284	0.323	0.87	2.74	48.31 ± 0.22	2.93	3.41
O=C(CN1C(=O)SC(=Cc2ccccc2)C1=O)Nc1ccc(S(=O)(=O)NC(=S)Nc2ccccc2)cc1 [Compound 6b, 2-(5-Benzylidene-2,4-dioxothiazolidin-3-yl)-N-(4-(N-(phenylcarbamothioyl)sulfamoyl)phenyl)-acetamide]	13.8 ± 1.2	0.15 ± 0.02	13 ± 1.2	10.7 ± 1.6	286 to 288	0.308	0.78	2.97	40.88 ± 0.22	3.16	3.83
O=C(CN1C(=O)SC(=Cc2ccccc2)C1=O)Nc1ccc(S(=O)(=O)NC(=S)NC2CCCCC2)cc1 [Compound 6c, 2-(5-Benzylidene-2,4-dioxothiazolidin-3-yl)-N-(4-(N-(cyclohexylcarbamothioyl)sulfamoyl)phenyl)-acetamide]	7.11 ± 1.7	0.08 ± 0.02	8.15 ± 1.6	8.99 ± 1.2	–	0.3	0.7	6.04	49.26 ± 0.22	–	6.93
CCNC(=S)NS(=O)(=O)c1ccc(NC(=O)CN2C(=O)SC(=Cc3ccc(C)cc3)C2=O)cc1 [Compound 7a, N-(4-(N-(Ethylcarbamothioyl)sulfamoyl)phenyl)-2-(5-(4-methylbenzylidene)-2,4-dioxothiazolidin-3-yl)acetamide]	16.8 ± 1.5	0.14 ± 0.02	16.7 ± 1.5	12.1 ± 1.5	285 to 287	0.32	0.81	3.58	60.12 ± 0.18	3.61	4.99
Cc1ccc(C=C2SC(=O)N(CC(=O)Nc3ccc(S(=O)(=O)NC(=S)Nc4ccccc4)cc3)C2=O)cc1 [Compound 7b, 2-(5-(4-Methylbenzylidene)-2,4-dioxothiazolidin-3-yl)-N-(4-(N-(phenylcarbamothioyl)sulfamoyl)-phenyl)acetamide]	13.5 ± 1.6	0.11 ± 0.02	12.9 ± 1.7	9.65 ± 1.7	–	0.305	0.75	3.90	52.61 ± 0.22	4.08	5.45
Cc1ccc(C=C2SC(=O)N(CC(=O)Nc3ccc(S(=O)(=O)NC(=S)NC4CCCCC4)cc3)C2=O)cc1 [Compound 7c, N-(4-(N-(Cyclohexylcarbamothioyl)sulfamoyl)phenyl)-2-(5-(4-methylbenzylidene)-2,4-dioxothiazolidin-3-yl)acetamide]	5.77 ± 1.9	0.08 ± 0.02	7.78 ± 1.9	8.82 ± 1.9	–	0.296	0.7	11.83	68.25 ± 0.21	8.77	7.74
COc1cccc2c1C(=O)c1c(O)c3c(c(O)c1C2=O)C[C@@](O)(C(=O)CO)C[C@@H]3O[C@H]1C[C@H](N)[C@H](O)[C@H](C)O1 [Doxorubicin, reference compound]	–	–	6.75 ± 0.4	7.94 ± 0.6	–	–	–	–	–	–	–
CCC1=C(C)CN(C(=O)NCCc2ccc(S(=O)(=O)NC(=O)N[C@H]3CC[C@H](C)CC3)cc2)C1=O [Glimiperide, reference compound]	–	–	–	–	–	–	0.73	–	–	–	–
